# Publication PMC9511483, “Refinement of Computational Access to Molecular Physicochemical Properties: From Ro5 to bRo5” (Journal of Medicinal Chemistry, 2022)
# Tests used:
# [1] = parameters: method as in Clark 1999; conditions: atom selection N, O, S, P, H; ref Clark 1999; cited from earlier work
# [2] = Δlog kW^IAM polarity descriptor; assay type: physicochemical; conditions: experimental log kW^IAM minus clog kW^IAM from BRlogD
# Source text: Δlog kW^IAM was earlier defined by Grumetto et al.[48] as (Δlog kW^IAM = experimental log kW^IAM – clog kW^IAM (log kW^IAM for neutral and nonpolar compounds with PSA = 0). Moreover, clog kW^IAM was correlated to log P (octanol/water)[48] and more recently to BRlogD[12] with equation (clog kW^IAM = BRlogD* 0.92–1.03). Therefore, the measurement of BRlogD and log kW^IAM for the three samples allowed to calculate polarity descriptor Δlog kW^IAM.
# [3] = log k′80 PLRP-S chromatographic lipophilicity; assay type: physicochemical; conditions: 80% ACN
# Protocol: (§1) Mobile phases consisted of an isocratic solution of 20 mM ammonium acetate at pH 7.0 and acetonitrile at various percentages (see specific method). Samples were dissolved in buffer/acetonitrile at concentrations ranging from 50 to 100 μg/mL. Chromatographic measurements were analyzed in duplicate. Then 10 μL of each solution (volume of injection) were injected at an isocratic 1 mL/min flow rate, analyzed at 30 °C (oven temperature). Each chromatographic descriptor required a specific HPLC method (see below).
# The retention times of the three samples were recorded at 80% ACN and capacity factors were calculated. Moreover, gold standards (acetone, caffeine, phenol, uracil–acetophenone--toluene mix and benzene) were daily checked.[15]
# [4] = Thermodynamic solubility; assay type: physicochemical; conditions: for solubility: 25 °C, thermodynamic from solid, thermodynamic solubility, read-out: Solubility 25ºC log S (converted)
# Protocol: Table S1: Thermodynamic solubility and permeability data of the three selected compounds.
# Solubility 25 °C Permeability
# Molecules log S (mol/l) (cm/s x 10 )
# [5] = PLRP-S retention at 50-100% ACN (chameleonicity); assay type: physicochemical; conditions: mobile phases 50 to 100% ACN
# Source text: In a recent paper, we proposed to monitor the propensity of compounds to assume a chameleonic behavior through the analysis of the variation of the capacity factor in a nonpolar polymeric chromatographic system, named PLRP-S.[16] Here we applied the same approach and determined the retention of the three compounds in the PLRP-S system with various mobile phases (from 50 to 100% ACN). According to the reverse-phase (RP) nature of the system, the retention time (and thus log k′ PLRP-S) of lipophilic molecules is expected to decrease when increasing the amount of acetonitrile in the mobile phase. […] This experimental finding can be explained by a propensity of Saquinavir to change its conformation in a nonpolar environment, masking its polarity supporting the chameleonic properties of this compound.
# [6] = log kW^IAM chromatographic lipophilicity (IAM.PC.DD2 column); assay type: physicochemical; conditions: extrapolated to 100% buffer, pH 7.0
# Protocol: as §1
# Dissolved samples were injected into column IAM.PC.DD2, and retention times were recorded at different mobile phase percentages (from 10 to 50% ACN). Capacity factor was calculated for each mobile phase condition using equation: k′ = [tR – t0]/t0) t0 being the retention time of a nonretained molecule (citric acid). The log kW^IAM value for each molecule was calculated by extrapolating the 100% buffer value (0% ACN) from the equation obtained with the five mobile phase conditions, previously mentioned. In addition, five standards (caffeine, carbamazepine, ketoprofen, theobromine, and toluene) were examined on a daily basis.[33]
# [7] = log Ptol, miniaturized shake-flask toluene/water; assay type: physicochemical
# Protocol: log Ptol was determined with an automated, miniaturized shake flask method in a 96-well format according to the protocol described by Shalaeva and co-workers.[24]
# [8] = BRlogD chromatographic lipophilicity (XBridge Shield RP18); assay type: physicochemical
# Protocol: as §1
# The three compounds previously dissolved in ACN were injected into the X-Bridge column (mobile phase: 40% buffer, 60% ACN), and the retention times and dead time (t0, baseline disturbance) were recorded. Consequently, capacity factor log k′60 was calculated (log k′60 = [tR – t0]/t0). The corresponding BRlogD value was obtained using equation: BRlogD = 3.31 × log k′60 + 2.79.[12] The used standard is acetone, caffeine, ibuprophen, lidocaine, phenol and a mixture of uracile, acetophenone and toluene.
# [9] = system: Caco-2; conditions: cited from earlier work
# [10] = Δlog Poct-tol IMHB propensity; assay type: physicochemical; conditions: difference between log Poct and log Ptol
# Source text: Δlog Poct-tol([24]) (the difference between log Poct and log Ptol) is an indicator of the capacity of a compound to expose HDon groups, and thus it quantifies the molecular capacity to form dynamic IMHBs. […] Our data support that Saquinavir is the compound with the highest capacity to form IMHB, its Δlog Poct-tol being 0.79. Pomalidomide and CMP 98 show poorer propensity to mask HDon groups, although not negligible.
# [11] = EPSA supercritical fluid chromatography polarity; assay type: physicochemical; conditions: SFC, Chirex 3014
# Protocol: EPSA was determined following the SFC protocol by Goetz and co-workers.[17] Briefly, a polar stationary phase (Chirex 3014) and a nonpolar mobile phase (supercritical CO2 with the addition of 20 mM ammonium formate in methanol as a modifier) were used to enable separation of compounds based on their polarity. The modifier was varied in 11 min from 5% to 60% at 5%/min in a linear gradient, holding at 60% for 4.9 min and reverting to the original 5% in 0.1 min. The flow rate was 5 mL/min, with the outlet back pressure set to 100 bar instead of 140 bar of the original method. Samples were dissolved in DMSO, the injection volume was 5 μL. The column temperature was set to 40 °C.
# [12] = parameters: method as in PMID 29608068; conditions: cited from earlier work
# [13] = SI Table S1; cited from earlier work
structure (smiles),measurement,setting,value
O=c1ccc2ccccc2o1 [Coumarin],3D PSA PSA Clark 1999,[1],33.9 Å2
O=C(O)c1ccccc1O [Salicylic Acid],3D PSA PSA Clark 1999,[1],62.5 Å2
Nc1nnc(-c2cccc(Cl)c2Cl)c(N)n1 [Lamotrigine],3D PSA PSA Clark 1999,[1],96.4 Å2
Nc1cccc2c1C(=O)N(C1CCC(=O)NC1=O)C2=O (stereo not drawn) [Pomalidomide],Δlog kW^IAM,[2],0.64
same,log k´80 PLRP-S,[3],-0.65
same,solubility,[4],28.2 µM
same,log k′ PLRP-S behaviour with increasing acetonitrile (chameleonicity index),[5],about in line with expectations
same,log kW^IAM,[6],0.91
same,log Ptol (SF),[7],-0.22
same,BRlogD,"[8]; 60% ACN, ammonium acetate pH 7.0",1.41
same,Permeability (Caco-2),"[9]; Caco-2, ref 13 (SI)",24.9 cm/s x 10^-6
same,Δlog P (Δlog Poct-tol),[10],1.63
same,EPSA,[11],82 A^2
CN1C(=O)C(O)N=C(c2ccccc2Cl)c2cc(Cl)ccc21 (stereo not drawn) [Lormetazepam],3D PSA PSA Clark 1999,[1],55.9 Å2
Cn1c(=O)c2[nH]cnc2n(C)c1=O [Theophylline],3D PSA PSA Clark 1999,[1],74.7 Å2
Cn1c(=O)c2c(ncn2C)n(C)c1=O [Caffeine],3D PSA PSA Clark 1999,[1],59.2 Å2
Cc1cc(=O)n(-c2ccccc2)n1C [Phenazone],3D PSA PSA Clark 1999,[1],28 Å2
CC(=O)Nc1ccc(O)cc1 [Acetaminophen],3D PSA PSA Clark 1999,[1],58.5 Å2
CC(C)(C)NC(=O)[C@@H]1C[C@@H]2CCCC[C@@H]2CN1C[C@@H](O)[C@H](Cc1ccccc1)NC(=O)[C@H](CC(N)=O)NC(=O)c1ccc2ccccc2n1 [Saquinavir],Δlog kW^IAM,[2],1.85
same,log k´80 PLRP-S,[3],-0.1
same,log k′ PLRP-S behaviour with increasing acetonitrile (chameleonicity index),[5],significantly higher than expected
same,log kW^IAM,[6],3.44
same,log Ptol (SF),[7],2.06
same,BRlogD,[8]; pH 7,2.85
same,Permeability (Caco-2 with efflux inhibiton),"[9]; Caco-2 with efflux inhibition, ref 11 (SI)",5.0 cm/s x 10^-6
same,Permeability mechanism,[9]; ref 11 (SI),Mainly active transport
same,Δlog P (Δlog Poct-tol),[10],0.79
same,pKa,[12],7.1
same,EPSA,[11],94 A^2
CC(=O)[C@H]1CC[C@H]2[C@@H]3CCC4=CC(=O)CC[C@]4(C)[C@H]3CC[C@]12C [Progesterone],3D PSA PSA Clark 1999,[1],41.2 Å2
Cc1ncsc1-c1ccc(CNC(=O)[C@@H]2C[C@H](O)CN2C(=O)[C@@H](NC(=O)COCCOCCOCCOCCOCCOCC(=O)N[C@H](C(=O)N2C[C@@H](O)C[C@H]2C(=O)NCc2ccc(-c3scnc3C)cc2)C(C)(C)C)C(C)(C)C)cc1 [CMP 98],Δlog kW^IAM,[2],2.1
same,log k´80 PLRP-S,[3],-0.84
same,solubility,[4],331 µM
same,water solubility,[4]; SI Table S1,water-soluble
same,log k′ PLRP-S behaviour with increasing acetonitrile (chameleonicity index),[5],some deviation from linearity
same,log kW^IAM,[6],2.34
same,log Ptol (SF),[7],-0.24
same,chromatographic logD,"[8]; XBridge Shield RP18 HPLC column, 60% ACN, ammonium acetate pH 7.0",1.38
same,Δlog P (Δlog Poct-tol),[10],1.62
same,EPSA,[11],104 A^2
same,PAMPA permeability,[13],not PAMPA permeable
O=C1CN=C(c2ccccn2)c2cc(Br)ccc2N1 [Bromazepam],3D PSA PSA Clark 1999,[1],57.4 Å2
